Data from US11878973B2, “Bicyclic compounds and their uses” (NOVARTIS AG, priority 2021, dated 2024).
pIC50: −log10 of the molar value.

Assays:
[1] = system: SW48 cells; experiment: Proliferation assay SW48 (CellTiterGlo, 96 hours); settings: Homo sapiens, SW48, read-out: Proliferation Assay SW48 (GI50)
[2] = system: DLD1-WRN-KO cells; experiment: Proliferation assay DLD1-WRN-KO (CellTiterGlo, 96 hours; off-target effects); settings: Homo sapiens, read-out: Proliferation Assay DLD1-WRN-KO (GI50)
Experimental: The WRN-knockdown insensitive colon carcinoma cell line DLD-1 (RRID: CVCL_0248) was obtained from the Korean Cell Line Bank (KCLB), and used to generate a derivative in which the endogenous WRN gene copies were knocked out by CRISPR-mediated editing using standard CRISPR methods. The resulting cell line, DLD1-WRN—KO, was used to assess potential off-target compound effects.
All cells were maintained at 37° C. in a humidified 5% CO2 incubator.
For data analysis, the assay background signal that was determined in wells containing medium, but no cells, was subtracted from all other data points prior to further calculations. The extent of growth inhibition and potential cell kill was assessed by comparing the ATP levels (measured using CellTiterGlo, Promega) in compound-treated cells with those present at the time of compound addition. […] 100%, 0% and −100% signify absence of growth inhibition, growth stasis, and complete cell kill, respectively. Compound concentrations leading to half-maximal growth inhibition (G150) and residual cell viability at the highest tested compound concentration (Data (cmax), expressed in percent) were routinely calculated. Data analysis can also be carried out using commercially available software designed to derive IC50 values using 4-parameter fits (e.g. GraphPad Prism, XL fit). The reported GI50 values are the geometrical means of at least 2 independent replicates.

[3] = biological target: WRN helicase (Homo sapiens (Human), UniProt Q14191); experiment: In vitro enzymatic activity assay on WRN helicase (DNA dependent ATPase assay, ADP-Glo); assay type: biochemical; settings: geometric means of at least 2 determinations; read-out: WRN ATPase Activity (IC50)
In short: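 The WRN helicase core (aa N517-P1238), 10 nM, hydrolysed 300 µM ATP in the presence of 0.2 nM FLAP26 DNA (Tris pH 7.5, 2 mM MgCl2, 50 mM NaCl) for 30 min at room temperature. ADP formed was quantified by ADP-Glo luminescence.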

Chain of WRN helicase (Q14191 517-1238): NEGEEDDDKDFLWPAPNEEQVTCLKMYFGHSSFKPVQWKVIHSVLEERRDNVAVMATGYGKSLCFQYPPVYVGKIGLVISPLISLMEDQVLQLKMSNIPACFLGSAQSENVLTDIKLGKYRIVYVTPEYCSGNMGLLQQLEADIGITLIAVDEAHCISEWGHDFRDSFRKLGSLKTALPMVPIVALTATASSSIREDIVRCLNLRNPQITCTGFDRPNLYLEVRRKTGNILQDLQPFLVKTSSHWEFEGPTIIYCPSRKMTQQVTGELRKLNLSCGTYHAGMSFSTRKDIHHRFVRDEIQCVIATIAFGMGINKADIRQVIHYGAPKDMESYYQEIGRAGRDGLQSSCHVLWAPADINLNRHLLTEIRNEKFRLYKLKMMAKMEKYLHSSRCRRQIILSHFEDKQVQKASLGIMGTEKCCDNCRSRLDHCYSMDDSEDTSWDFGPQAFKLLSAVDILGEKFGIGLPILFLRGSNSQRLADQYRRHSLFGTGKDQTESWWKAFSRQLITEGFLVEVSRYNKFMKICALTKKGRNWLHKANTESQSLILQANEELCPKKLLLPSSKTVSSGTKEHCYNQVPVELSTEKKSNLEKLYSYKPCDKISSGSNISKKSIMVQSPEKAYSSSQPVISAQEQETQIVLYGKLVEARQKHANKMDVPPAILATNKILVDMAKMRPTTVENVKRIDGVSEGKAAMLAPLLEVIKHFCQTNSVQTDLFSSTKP

In the case of `CCc1c(N2CCN(C(=O)c3ncccc3O)CC2)c(=O)n2nc(C3=CCOCC3)nc2n1CC(=O)Nc1ccc(C(F)(F)F)nc1C` [Example 35, 2-(2-(3,6-dihydro-2H-pyran-4-yl)-5-ethyl-6-(4-(3-hydroxypicolinoyl)piperazin-1-yl)-7-oxo-[1,2,4]triazolo[1,5-a]pyrimidin-4(7H)-yl)-N-(2-methyl-6-(trifluoromethyl)pyridin-3-yl)acetamide], the GI50 [1] was 400 nM, the GI50 [2] was greater than 10000 nM and the pIC50 [3] was 6.72.

`CCc1c(N2CCN(C(=O)c3nc(C)cc(F)c3O)CC2)c(=O)n2nc(C3=CCOCC3)nc2n1CC(=O)Nc1ccc(C(F)(F)F)nc1Cl` [Example 49, N-(2-chloro-6-(trifluoromethyl)pyridin-3-yl)-2-(2-(3,6-dihydro-2H-pyran-4-yl)-5-ethyl-6-(4-(4-fluoro-3-hydroxy-6-methylpicolinoyl)piperazin-1-yl)-7-oxo-[1,2,4]triazolo[1,5-a]pyrimidin-4(7H)-yl)acetamide] showed a GI50 [1] of 120 nM, a GI50 [2] greater than 10000 nM and a pIC50 [3] of 6.92.

`CCc1c(N2CCN(C(=O)c3ncccc3O)CC2)c(=O)n2nc(N3CCCC(F)C3)nc2n1CC(=O)Nc1cc(Cl)c(C(F)(F)F)cc1C` (racemic) [Example 13, rac-N-(5-chloro-2-methyl-4-(trifluoromethyl)phenyl)-2-(5-ethyl-2-(3-fluoropiperidin-1-yl)-6-(4-(3-hydroxypicolinoyl)piperazin-1-yl)-7-oxo-[1,2,4]triazolo[1,5-a]pyrimidin-4(7H)-yl)acetamide] showed a GI50 [1] of 160 nM, a GI50 [2] of 5200 nM and a pIC50 [3] of 7.52.

For `CCc1c(N2CCN(C(=O)c3nc(C)cc(F)c3O)CC2)c(=O)n2nc(C3=CCOCC3)nc2n1CC(=O)Nc1ccc(C(F)(F)F)cc1C` [Example 62, 2-(2-(3,6-dihydro-2H-pyran-4-yl)-5-ethyl-6-(4-(4-fluoro-3-hydroxy-6-methylpicolinoyl)piperazin-1-yl)-7-oxo-[1,2,4]triazolo[1,5-a]pyrimidin-4(7H)-yl)-N-(2-methyl-4-(trifluoromethyl)phenyl)acetamide], the GI50 [1] was 50 nM, the GI50 [2] was greater than 10000 nM and the pIC50 [3] was 7.30.

Work on `CCc1c(N2CCN(C(=O)c3ncccc3O)CC2)c(=O)n2nc(N3CCCC3)nc2n1CC(=O)Nc1ccc(C(F)(F)F)nc1Cl` [Example 18, N-(2-chloro-6-(trifluoromethyl)pyridin-3-yl)-2-(5-ethyl-6-(4-(3-hydroxypicolinoyl)piperazin-1-yl)-7-oxo-2-(pyrrolidin-1-yl)-[1,2,4]triazolo[1,5-a]pyrimidin-4(7H)-yl)acetamide] yielded a GI50 [1] of 260 nM, a GI50 [2] greater than 10000 nM and a pIC50 [3] of 6.74.

Compound `CCc1c(N2CCN(C(=O)c3ncccc3O)CC2)c(=O)n2nc(N3CCOCC3)nc2n1CC(=O)Nc1cc(F)c(C(F)(F)F)cc1Cl` [Example 7, N-(2-chloro-5-fluoro-4-(trifluoromethyl)phenyl)-2-(5-ethyl-6-(4-(3-hydroxypicolinoyl)piperazin-1-yl)-2-morpholino-7-oxo-[1,2,4]triazolo[1,5-a]pyrimidin-4(7H)-yl)acetamide] has a GI50 [1] of 210 nM, a GI50 [2] greater than 10000 nM and a pIC50 [3] of 7.05.

`Cc1cc(C(F)(F)F)ccc1NC(=O)Cn1c(CCO)c(N2CCN(C(=O)c3ncccc3O)CC2)c(=O)n2nc(C3=CCOCC3)nc12` [Example 135, 2-(2-(3,6-dihydro-2H-pyran-4-yl)-5-(2-hydroxyethyl)-6-(4-(3-hydroxypicolinoyl)piperazin-1-yl)-7-oxo-[1,2,4]triazolo[1,5-a]pyrimidin-4(7H)-yl)-N-(2-methyl-4-(trifluoromethyl)phenyl)acetamide] gave a GI50 [1] of 280 nM, a GI50 [2] greater than 10000 nM and a pIC50 [3] of 6.89.

In the case of `CCc1c(N2CCN(C(=O)c3nccc(Cl)c3O)CC2)c(=O)n2nc(N3CCC[C@H](F)C3)nc2n1CC(=O)Nc1ccc(C(F)(F)F)cc1C` [Example 85, (S)-2-(6-(4-(4-chloro-3-hydroxypicolinoyl)piperazin-1-yl)-5-ethyl-2-(3-fluoropiperidin-1-yl)-7-oxo-[1,2,4]triazolo[1,5-a]pyrimidin-4(7H)-yl)-N-(2-methyl-4-(trifluoromethyl)phenyl)acetamide], the GI50 [1] was 110 nM, the GI50 [2] was greater than 10000 nM and the pIC50 [3] was 7.15.

Work on `CCc1c(N2CCN(C(=O)c3ncccc3O)CC2)c(=O)n2nc(C3=CCCOC3)nc2n1CC(=O)Nc1ccc(C(F)(F)F)cc1C` [Example 114, 2-(2-(5,6-dihydro-2H-pyran-3-yl)-5-ethyl-6-(4-(3-hydroxypicolinoyl)piperazin-1-yl)-7-oxo-[1,2,4]triazolo[1,5-a]pyrimidin-4(7H)-yl)-N-(2-methyl-4-(trifluoromethyl)phenyl)acetamide] yielded a GI50 [1] of 180 nM, a GI50 [2] greater than 10000 nM and a pIC50 [3] of 7.05.

With `CCc1c(N2CCN(C(=O)c3ncccc3O)CC2)c(=O)n2nc(C3=CCCCO3)nc2n1CC(=O)Nc1ccc(C(F)(F)F)nc1Cl` [Example 29, N-(2-chloro-6-(trifluoromethyl)pyridin-3-yl)-2-(2-(3,4-dihydro-2H-pyran-6-yl)-5-ethyl-6-(4-(3-hydroxypicolinoyl)piperazin-1-yl)-7-oxo-[1,2,4]triazolo[1,5-a]pyrimidin-4(7H)-yl)acetamide] the GI50 [1] was 50 nM, the GI50 [2] was greater than 10000 nM and the pIC50 [3] was 7.05.

For `CCc1c(N2CCN(C(=O)c3ncccc3O)CC2)c(=O)n2nc(C3=COCCO3)nc2n1CC(=O)Nc1ccc(C(F)(F)F)nc1Cl` [Example 27, N-(2-chloro-6-(trifluoromethyl)pyridin-3-yl)-2-(2-(5,6-dihydro-1,4-dioxin-2-yl)-5-ethyl-6-(4-(3-hydroxypicolinoyl)piperazin-1-yl)-7-oxo-[1,2,4]triazolo[1,5-a]pyrimidin-4(7H)-yl)acetamide], the GI50 [1] was 270 nM, the GI50 [2] was greater than 10000 nM and the pIC50 [3] was 6.89.

Work on `CCc1c(N2CCN(C(=O)c3ncccc3O)CC2)c(=O)n2nc(N3CCOCC3)nc2n1CC(=O)Nc1cc(Cl)c(C(F)(F)F)cc1C` [Example 4, N-(5-chloro-2-methyl-4-(trifluoromethyl)phenyl)-2-(5-ethyl-6-(4-(3-hydroxypicolinoyl)piperazin-1-yl)-2-morpholino-7-oxo-[1,2,4]triazolo[1,5-a]pyrimidin-4(7H)-yl)acetamide] yielded a GI50 [1] of 60 nM, a GI50 [2] greater than 10000 nM and a pIC50 [3] of 7.40.

`CCc1c(N2CCN(C(=O)c3nc(N4CCN(C)CC4)ncc3O)CC2)c(=O)n2nc(C3=CCOCC3)nc2n1CC(=O)Nc1ccc(C(F)(F)F)cc1C` [Example 128, 2-(2-(3,6-dihydro-2H-pyran-4-yl)-5-ethyl-6-(4-(5-hydroxy-2-(4-methylpiperazin-1-yl)pyrimidine-4-carbonyl)piperazin-1-yl)-7-oxo-[1,2,4]triazolo[1,5-a]pyrimidin-4(7H)-yl)-N-(2-methyl-4-(trifluoromethyl)phenyl)acetamide] showed a GI50 [1] of 690 nM, a GI50 [2] greater than 10000 nM and a pIC50 [3] of 7.10.

With `CCc1c(N2CCN(C(=O)c3ncccc3O)CC2)c(=O)n2nc(C3=CCOCC3)nc2n1CC(=O)Nc1ccc(C(F)(F)F)c(F)c1C` [Example 38, 2-(2-(3,6-dihydro-2H-pyran-4-yl)-5-ethyl-6-(4-(3-hydroxypicolinoyl)piperazin-1-yl)-7-oxo-[1,2,4]triazolo[1,5-a]pyrimidin-4(7H)-yl)-N-(3-fluoro-2-methyl-4-(trifluoromethyl)phenyl)acetamide] the GI50 [1] was 50 nM, the GI50 [2] was greater than 10000 nM and the pIC50 [3] was 7.40.
